In patent US12617770B2, “IRAK inhibitor and preparation method therefor and use thereof” (WUHAN CREATERNA SCIENCE AND TECHNOLOGY CO., LTD., priority 2019, dated 2026):

Target: T1, CYP3A4 (Homo sapiens, UniProt P08684)
T1 construct: The test compounds were co-incubated with the human liver microsomes and a probe substrate midazolam (CYP3A4); tissue Corning (USA); host or cells: mixed (pooled) human liver microsomes
Experiment: Time-dependent inhibition (TDI) of CYP3A4 in human liver microsomes
Assay type: in vitro ADME
Settings: probe substrate midazolam
Protocol: This study was intended to investigate the time-dependent inhibition effect of the compounds on CYP3A4 in human P450 superfamily. The mixed human liver microsomes used in this assay were purchased from Corning (USA).
The test compounds were co-incubated with the human liver microsomes and a probe substrate midazolam (CYP3A4), and the concentration of the test compounds was set at 30 μM. The reaction was initiated by adding coenzyme NADPH, and terminated by adding acetonitrile dossolved with internal standard in advance. After the proteins were precipitated, the supernatant was centrifuged. The characteristic metabolite 1-hydroxy-midazolam (CYP3A4) in the supernatant was analyzed by LC-MS/MS. The influence of the test compounds on production of the characteristic metabolites was finally analyzed on the basis of the data obtained. A selective inhibitor (verapamil for CYP3A4-M) was used as positive control.

T1 sequence (P08684 whole entry): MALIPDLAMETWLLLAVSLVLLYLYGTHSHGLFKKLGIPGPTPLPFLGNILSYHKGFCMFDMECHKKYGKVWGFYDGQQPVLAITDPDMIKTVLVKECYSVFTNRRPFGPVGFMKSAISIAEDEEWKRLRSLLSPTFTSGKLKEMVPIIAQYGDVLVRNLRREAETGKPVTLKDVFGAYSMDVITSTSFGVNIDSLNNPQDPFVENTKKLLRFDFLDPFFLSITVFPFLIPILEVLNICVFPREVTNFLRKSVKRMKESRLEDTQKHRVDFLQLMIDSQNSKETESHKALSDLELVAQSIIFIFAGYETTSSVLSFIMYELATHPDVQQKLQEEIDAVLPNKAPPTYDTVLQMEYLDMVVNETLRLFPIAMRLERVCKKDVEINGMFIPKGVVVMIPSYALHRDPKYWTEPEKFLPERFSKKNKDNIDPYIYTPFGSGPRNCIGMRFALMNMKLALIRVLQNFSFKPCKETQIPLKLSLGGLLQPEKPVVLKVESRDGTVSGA

TDI (3A4, 30 μM): −3.68%
Structure (SMILES): COc1cc2nn([C@H]3CC[C@](C)(O)CC3)cc2cc1NC(=O)c1cccc(C)[n+]1[O-] [Compound 001, 2-((2-((1r,4r)-4-hydroxy-4-methylcyclohexyl)-6-methoxy-2H-indazol-5-yl)carbamoyl)-6-methylpyridine 1-oxide]
